Experiments:
[1] = molecular target: T1, human OCT1 (Homo sapiens, UniProt O15245); experiment: Cellular uptake by HEK293 cells overexpressing human OCT1 (wildtype); details: human versus mouse OCT1, stably transfected HEK293
T1 sequence (O15245 1-554): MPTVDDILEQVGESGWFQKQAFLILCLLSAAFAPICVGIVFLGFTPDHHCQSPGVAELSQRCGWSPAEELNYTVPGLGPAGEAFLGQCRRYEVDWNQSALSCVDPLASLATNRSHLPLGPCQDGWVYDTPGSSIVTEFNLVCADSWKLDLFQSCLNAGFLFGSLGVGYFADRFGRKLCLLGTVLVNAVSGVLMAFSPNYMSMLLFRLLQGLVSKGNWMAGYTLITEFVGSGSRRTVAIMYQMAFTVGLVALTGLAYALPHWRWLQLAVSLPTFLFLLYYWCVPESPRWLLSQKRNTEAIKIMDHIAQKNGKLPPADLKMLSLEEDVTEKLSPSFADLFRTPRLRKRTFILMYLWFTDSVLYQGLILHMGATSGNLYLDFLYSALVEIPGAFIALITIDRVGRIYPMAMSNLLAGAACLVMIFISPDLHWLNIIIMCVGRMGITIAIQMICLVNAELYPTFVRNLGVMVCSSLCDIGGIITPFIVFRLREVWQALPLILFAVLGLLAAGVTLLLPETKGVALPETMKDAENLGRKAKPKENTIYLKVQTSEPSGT
Experimental: Generation and characterization of these cell lines has been described in detail before ([34], [48], [49]). Cells were cultured in Dulbecco’s Modified Eagle’s Medium supplemented with 10% fetal bovine serum, 100 U/ml penicillin, and 100 μg/ml streptomycin at 37 °C and 5% CO2 and were passaged twice a week.
At 48 h prior to the experiment, 6 × 10^5 cells were seeded per well in 12-well plates. When using transiently transfected cells, 5 × 10^5 T-REx-293 cells (Life Technologies) were seeded per well in 12-well plates 72 h prior to the experiment, and they were transfected 24 h later as described previously. Twelve-well plates were precoated with poly-D-lysine.
(§1) Cellular uptake experiments were performed at 37 °C and pH 7.4 using HBSS supplemented with 10 mM Hepes (in the following referred to as HBSS+). Cells were washed with 1 ml prewarmed (37 °C) HBSS+, and the uptake was initiated by adding 400 μl of prewarmed HBSS+ containing the substrate. Uptake was allowed for exactly 2 min and afterward stopped by adding 2 ml ice-cold HBSS+. Cells were washed twice with 2 ml ice-cold HBSS+ and lysed with 80% acetonitrile supplemented with internal standard, 0.1 N NaOH/0.1% SDS, or radioimmunoprecipitation buffer for LC–MS/MS, liquid scintillation counting, or fluorescence spectroscopy detection, respectively. Intracellular substrate concentrations were measured as described in the following and were then normalized to the amount of total protein in the samples as measured using the bicinchoninic acid assay ([51]).
For LC–MS/MS quantification of intracellular substrate concentrations, the cell lysate was centrifuged at 16,000g for 15 min, and 350 μl of supernatant was evaporated to dryness under nitrogen flow at 40 °C. The sample was reconstituted with 200 μl 0.1% formic acid, and between 2 and 30 μl were injected into the LC–MS/MS system (Table S1).
An API4000 QTRAP tandem mass spectrometer with ESI interface (AB SCIEX) was used, coupled to a Shimadzu Nexera X2 UHPLC system with LC 30AD pumps and SiL 30AC autosampler (Shimadzu).
Intracellular concentrations of radioactively labeled substrates MPP^+ and TEA^+ were quantified using liquid scintillation counting. To this end, 400 μl cell lysate was transferred into a 20 ml scintillation vial, 9 ml Aquasafe 500 Plus liquid scintillator (both Zinsser Analytics) was added, and the sample was measured in the Scintillation Counter LS6500 (Beckman Coulter).
For both analyses, SPSS Statistics, version 28 (SPSS, Inc, IBM) was used.

[2] = human, estimated based on clinical data, ref [9]; cited from earlier work
[3] = molecular target: T2, human OCT1 Cys36Tyr (Homo sapiens, UniProt O15245, C36Y); experiment: Uptake by HEK293 cells overexpressing Cys36Tyr human OCT1; type: cell-based; details: stably transfected HEK293, increasing concentrations, 2 min
T2 construct: expressed in transfected cells
Experimental: (§2) Human–mouse chimeric OCT1 constructs were generated using the overlap extension method ([50]) and have been characterized before ([34]). […] All constructs were validated by capillary sequencing of the complete open reading frame of OCT1 before transfection into HEK293 cells.
(§3) For transient transfection of OCT1 constructs into HEK293 cells for uptake experiments, 5 × 10^5 T-REx-293 cells (Life Technologies) were seeded per well in 12-well plates precoated with poly-D-lysine. […] At 48 h later, transfection efficacy was assessed microscopically by visualizing the GFP signal of the cotransfected GFP vector, and the cells were subsequently used for uptake experiments. […]
as §1, with “Cells were washed with 1 ml prewarmed (37 °C) HBSS+, and the uptake was initiated by adding 400 μl of prewarmed HBSS+ containing the substrate. Uptake was allowed for exactly 2 min and afterward stopped by adding 2 ml ice-cold HBSS+.” left out, “([51]). […]” for “([51]).”

[4] = molecular target: mouse Oct1 Tyr36Cys (Mus musculus, UniProt O08966, Y36C); details: stably transfected HEK293, increasing concentrations, 2 min
Experimental: as §2, §3
as §1, with “Cells were washed with 1 ml prewarmed (37 °C) HBSS+, and the uptake was initiated by adding 400 μl of prewarmed HBSS+ containing the substrate. Uptake was allowed for exactly 2 min and afterward stopped by adding 2 ml ice-cold HBSS+.” left out, “([51]). […]” for “([51]).”

Chain of mouse Oct1 Tyr36Cys (O08966 whole entry Y36C): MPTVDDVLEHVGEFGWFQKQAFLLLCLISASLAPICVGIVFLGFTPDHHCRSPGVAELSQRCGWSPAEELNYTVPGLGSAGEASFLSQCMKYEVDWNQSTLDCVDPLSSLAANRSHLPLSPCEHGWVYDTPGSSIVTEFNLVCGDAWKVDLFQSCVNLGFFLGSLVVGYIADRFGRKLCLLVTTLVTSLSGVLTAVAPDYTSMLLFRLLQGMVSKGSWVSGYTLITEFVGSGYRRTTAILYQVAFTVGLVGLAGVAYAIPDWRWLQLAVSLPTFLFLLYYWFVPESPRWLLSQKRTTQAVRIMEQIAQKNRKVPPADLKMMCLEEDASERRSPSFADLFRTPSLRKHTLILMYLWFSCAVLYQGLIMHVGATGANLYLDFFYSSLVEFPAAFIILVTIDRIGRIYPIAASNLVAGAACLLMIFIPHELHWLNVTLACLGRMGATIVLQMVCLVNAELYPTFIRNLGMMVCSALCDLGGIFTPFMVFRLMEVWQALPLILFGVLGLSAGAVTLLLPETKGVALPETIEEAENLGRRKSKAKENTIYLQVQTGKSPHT

| SMILES | fold higher affinity (KM) of human than of mouse OCT1 [1] | clinically relevant (plasma) concentration [2] | effect of Cys36Tyr in human OCT1 on affinity (KM) [3] | fold lower affinity (KM) of human OCT1 than mouse Oct1 (higher affinity of mouse Oct1) [1] | effect of Tyr36Cys in mouse OCT1 on affinity (KM) [4] |
| --- | --- | --- | --- | --- | --- |
| CC(Cc1ccc(O)cc1)NCC(O)c1cc(O)cc(O)c1 (centres unmarked) [Fenoterol] | 8.1 fold | 2.18 nM | – | – | – |
| CC(C)(C)NCC(O)c1cc(O)cc(O)c1 (centres unmarked) [Terbutaline] | – | – | did not affect | more than sixfold higher affinity of mouse Oct1 | did not affect |
